For this experiment, the target named is T1, HDM2 (Homo sapiens, UniProt Q00987).
T1 construct: Thioredoxin (N); made in house; host or cells: E. coli BL21(DE3)Rosetta (pET32a)
Put plainly: HDM2 FRET assay (inhibition of p53 peptide binding to HDM2). The settings on record: truncated HDM2 residues 17 to 125, 0.5 nM HDM2, 3 nM FITC labeled 8-mer peptide, two hour incubation. From the text:
Methods: An HDM2 FRET assay was developed to assess the compounds' inhibitory activity towards binding of p53 protein. A truncated version of HDM2 with residues 17 to 125 (containing p53 binding surface, Science (1994) 265, 346-355), with N-terminal His and Thioredoxin tag was generated in pET32a expression vector and expressed in E. coli strain BL21(DE3)Rosetta. Protein was purified using Ni-affinity chromatography, followed by size exclusion chromatography using Superdex 75 26/60 column. To assess inhibition of p53 binding to HDM2, a FITC labeled 8-mer peptide (sequence: Ac-Phe-Arg-Dpr-Ac6c-(6-Br)Trp-Glu-Glu-Leu-NH2; Anal Biochem. 2004 Aug. 1; 331(1):138-46) with strong affinity towards p53 binding pocket of HDM2 was used. The HDM2 assay buffer contained 1× Phosphate Buffered Saline (Invitrogen, Cat#14190), 0.01% BSA (Jackson ImmunoResearch, Cat#001-000-162), 0.01% Tween-20. In the 1× assay buffer recombinant HDM2 protein, peptide and Lumi4-Tb Cryptate-conjugate mouse anti-6×HIS antibody (cisbio, Cat#Tb61HISTLB) were added and transferred to ProxiPlate PLUS (PerkinElmer, Cat#6008269), containing compounds so that final DMSO concentration is 0.1%. Final concentrations of reagents in the assay wells are 0.5 nM HDM2, 0.25 nM anti HIS (Tb label) antibody and 3 nM peptide. After two hour incubation at room temperature in a humidified chamber plates were read on EnVision plate reader with the following settings: excitation: UV, […], two emission filters: 520 nm and 495 nm respectively. Ratio of em520/em495 was used to calculate % inhibition and to obtain IC50 with 4-parameter logistic equation.
IC50 DETERMINATIONS: Dose-response curves were plotted from the inhibition data, from 10 point serial dilutions of inhibitory compounds. Concentration of compound was plotted against em520/Cem495 ratio signal. To generate IC50 values, the dose-response curves were fitted to a standard sigmoidal curve and IC50 values were derived by nonlinear regression analysis. IC50 values in the above table are rounded to the nearest integer.

The values that follow come from patent US9682978B2, “2,6,7 substituted purines as HDM2 inhibitors” (Merck Sharp & Dohme Corp., priority 2013, dated 2017).

Usually IC50 stands for the concentration needed to halve the response being measured.

The structures appear in SMILES notation.

T1 sequence (Q00987 17-125): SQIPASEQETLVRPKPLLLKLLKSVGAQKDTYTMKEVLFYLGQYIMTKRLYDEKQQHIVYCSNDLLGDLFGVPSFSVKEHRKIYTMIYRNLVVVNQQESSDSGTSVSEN

`CC1CCC(Cn2cnc3nc(-c4noc(=O)[nH]4)nc(N[C@H](C)C4CCC4)c32)C1` (mixture of isomers) [Example 3.9, 3-(6-{[(1R)-1-cyclobutylethyl]amino}-7-[(3-methylcyclopentyl)methyl]-7H-purin-2-yl)-1,2,4-oxadiazol-5(4H)-one] registered an IC50 (Table 3) of 1640 nM.
In the case of `C[C@H]1CC[C@H](Cn2cnc3nc(-c4noc(=O)[nH]4)nc(-c4cc(Cl)cc(C(N)=O)c4)c32)CC1` [Example 2.13, 3-chloro-5-{7-[(trans-4-methylcyclohexyl)methyl]-2-(5-oxo-4,5-dihydro-1,2,4-oxadiazol-3-yl)-7H-purin-6-yl}benzamide], where the note is “Table 2”, the 50% inhibitory concentration (IC50) was determined as 50.8 nM.
`CCC1CCC(Cn2cnc3nc(-c4noc(=O)[nH]4)nc(N[C@H](C)C4CCC4)c32)C1` (single isomer, unassigned) [Example 3.14] showed an IC50 (Table 3) of 189 nM.
Consider `C[C@H]1CC[C@H](Cn2cnc3nc(-c4noc(=O)[nH]4)nc(-c4cc(Cl)cnc4O)c32)CC1` [Example 2.16, 3-{6-(5-chloro-2-hydroxypyridin-3-yl)-7-[(trans-4-methylcyclohexyl)methyl]-7H-purin-2-yl}-1,2,4-oxadiazol-5(4H)-one], for which the IC50 (Table 2) stood at 87.6 nM. In other words, the double-digit nanomolar range.
The same measure, in the same setting: in the case of `C[C@H]1CC[C@H](Cn2cnc3nc(-c4noc(=O)[nH]4)nc(-c4cc(Cl)cc(N5CCCC5)c4)c32)CC1` [Example 2.18, 3-{6-(3-chloro-5-pyrrolidin-1-ylphenyl)-7-[(trans-4-methylcyclohexyl)methyl]-7H-purin-2-yl}-1,2,4-oxadiazol-5(4H)-one] it was 331 nM.
